Assay [1] addresses human GLP-1R (Homo sapiens, UniProt P43220, G168S). In words: CHO GLP-1R Clone H6 cAMP HTRF agonist assay (Assay 1, high receptor density). Type of assay: cell-based. To be noted: for EC50: CHO GLP-1R clone H6, cAMP HTRF, geometric mean; for Emax: CHO GLP-1R clone H6, arithmetic mean, relative to saturating GLP-1 (1 μM), read-out: Assay 1 Emax (%). The gist of the method: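 From replicate determinations, mean EC50 (geometric) and mean Emax (arithmetic) were derived and expressed to two significant figures.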
For orientation: Time-resolved FRET reads energy transfer from a long-lived donor to a nearby acceptor.

Assay [2] has as its target human GLP-1R (Homo sapiens, UniProt P43220, L260F). In words: CHO GLP-1R Clone C6 cAMP HTRF agonist assay (Assay 2, low receptor density). Type of assay: cell-based. Conditions: for EC50: CHO GLP-1R clone C6, cAMP HTRF, geometric mean; for Emax: CHO GLP-1R clone C6, arithmetic mean, relative to saturating GLP-1 (1 μM). The source says:
In Table 5 and Table 6, assay data are presented to two (2) significant figures as the geometric mean (EC50s) and arithmetic mean (Emax) based on the number of replicates listed (Number). A blank cell means there was no data for that Example or the Emax was not calculated.

Chain of human GLP-1R (Homo sapiens, UniProt P43220, G168S) (P43220 24-463 G168S): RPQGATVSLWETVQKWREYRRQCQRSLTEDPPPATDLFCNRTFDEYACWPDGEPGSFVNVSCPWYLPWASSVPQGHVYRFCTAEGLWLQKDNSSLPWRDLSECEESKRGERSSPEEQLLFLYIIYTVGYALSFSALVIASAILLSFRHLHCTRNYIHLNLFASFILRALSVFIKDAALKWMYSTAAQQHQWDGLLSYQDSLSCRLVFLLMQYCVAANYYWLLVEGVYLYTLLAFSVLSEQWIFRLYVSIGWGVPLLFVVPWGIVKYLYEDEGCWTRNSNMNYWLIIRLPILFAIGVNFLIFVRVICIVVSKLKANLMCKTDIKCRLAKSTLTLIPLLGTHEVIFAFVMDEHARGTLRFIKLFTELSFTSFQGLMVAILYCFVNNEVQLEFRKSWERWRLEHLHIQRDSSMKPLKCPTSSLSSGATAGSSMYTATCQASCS
Chain of human GLP-1R (Homo sapiens, UniProt P43220, L260F) (P43220 24-463 L260F): as the sequence (P43220 24-463 G168S) above, with S145G, L237F counted along it

For `COCCn1c(CN2CC[C@H](c3cccc(OCc4ccc(Cl)cc4F)n3)[C@H](C)C2)nc2ccc(C(=O)O)cc21` (racemic) [Compound 192B, rac-2-{[(3R,4R)-4-{6-[(4-chloro-2-fluorobenzyl)oxy]pyridin-2-yl}-3-methylpiperidin-1-yl]methyl}-1-(2-methoxyethyl)-1H-benzimidazole-6-carboxylic acid], at human GLP-1R [1], the EC50 is 0.99 nM and the Emax was found to be 95%. Moreover, at human GLP-1R [2], the EC50 came out at 10 nM and the Emax is 120%.

As to `N#Cc1ccc(COc2cccc(N3CCN(Cc4nc5ccc(C(=O)O)nc5n4C[C@@H]4CCO4)CC3)n2)c(F)c1` [Compound 123B, 2-[(4-{6-[(4-cyano-2-fluorobenzyl)oxy]pyridin-2-yl}piperazin-1-yl)methyl]-3-[(2S)-oxetan-2-ylmethyl]-3H-imidazo[4,5-b]pyridine-5-carboxylic acid], the 50% effective concentration (EC50) worked out at 2.4 nM at human GLP-1R [1] and 45 nM at human GLP-1R [2]. The Emax on human GLP-1R [1] came out at 87%; at human GLP-1R [2], 95%.

`COCCn1c(CN2CC[C@H](c3cccc(OCc4ccc(Cl)cc4F)n3)[C@@H](F)C2)nc2ccc(C(=O)O)cc21` (racemic) [Compound 189B, rac 2-{[(3S,4S)-4-{6-[(4-chloro-2-fluorobenzyl)oxy]pyridin-2-yl}-3-fluoropiperidin-1-yl]methyl}-1-(2-methoxyethyl)-1H-benzimidazole-6-carboxylic acid]: at human GLP-1R [1], the concentration giving a half-maximal response (EC50) was determined as 68 nM and the Emax was 77%. Moreover, on human GLP-1R [2], the EC50 stood at 1700 nM and the maximum response (Emax) was 110%.

Regarding `CCCn1cnnc1Cn1c(CN2CCC(c3cccc(OCc4ccc(Cl)cc4F)n3)CC2)nc2ccc(C(=O)O)cc21` [Compound 187B, 2-[(4-{6-[(4-chloro-2-fluorobenzyl)oxy]pyridin-2-yl}piperidin-1-yl)methyl]-1-[(4-propyl-4H-1,2,4-triazol-3-yl)methyl]-1H-benzimidazole-6-carboxylic acid], the values for the EC50 at human GLP-1R [1] and on human GLP-1R [2] were 49 nM and 2100 nM, respectively. The Emax on human GLP-1R [1] came to 71%.

`COCCn1c(CN2CCC(c3cccc(OCc4ccc(C)cc4)n3)CC2)nc2ccc(C(=O)O)cc21` [Compound 217B, Ammonium 2-((4-(6-((4-Methylbenzyl)oxy)pyridin-2-yl)piperidin-1-yl)methyl)-1-(2-methoxyethyl)-1H-benzo[d]imidazole-6-carboxylate]: the EC50 at human GLP-1R [1] was 1.5 nM; at human GLP-1R [2], 24 nM. Besides, the maximum response (Emax) amounted to 73% on human GLP-1R [1] and 91% on human GLP-1R [2].

As to `N#Cc1ccc(COc2cccc(C3CCN(Cc4nc5ccc(C(=O)O)nc5n4C[C@@H]4CCO4)CC3)n2)c(F)c1` [Compound 114B, 2-[(4-{6-[(4-cyano-2-fluorobenzyl)oxy]pyridin-2-yl}piperidin-1-yl)methyl]-3-[(2S)-oxetan-2-ylmethyl]-3H-imidazo[4,5-b]pyridine-5-carboxylic acid], at human GLP-1R [1], the EC50 was 7.1 nM and the Emax is 81%. Besides, at human GLP-1R [2], it took 120 nM to reach a half-maximal effect (EC50) and the Emax came to 85%.

`Cc1ccn(CCn2c(CN3CCC(c4cccc(OCc5ccc(Cl)cc5F)n4)CC3)nc3ccc(C(=O)O)cc32)n1` [Compound 306B, 2-[(4-{6-[(4-chloro-2-fluorobenzyl)oxy]pyridin-2-yl}piperidin-1-yl)methyl]-1-[2-(3-methyl-1H-pyrazol-1-yl)ethyl]-1H-benzimidazole-6-carboxylic acid]: at human GLP-1R [1], the EC50 was determined as 190 nM and the Emax came out at 80%. At human GLP-1R [2], this molecule had an EC50 of 3600 nM and an Emax of 93%.

Regarding `O=C(O)c1ccc2nc(CN3CCC(c4cccc(OCc5ccc(Cl)cc5F)n4)CC3)n(Cc3cn[nH]c3)c2c1` [Compound 290B, 2-[(4-{6-[(4-chloro-2-fluorobenzyl)oxy]pyridin-2-yl}piperidin-1-yl)methyl]-1-(1H-pyrazol-4-ylmethyl)-1H-benzimidazole-6-carboxylic acid], at human GLP-1R [1], a half-maximal effect (EC50) was put at 44 nM and the Emax came to 72%. On human GLP-1R [2], the EC50 worked out at 490 nM and the maximal effect (Emax) worked out at 98%.

Consider `N#Cc1ccc(COc2nc(C3CCN(Cc4nc5ccc(C(=O)O)cc5n4CC4CCCO4)CC3)ccc2F)cc1` (stereo not drawn) [Compound 360B, 2-[(4-{6-[(4-cyanobenzyl)oxy]-5-fluoropyridin-2-yl}piperidin-1-yl)methyl]-1-(tetrahydrofuran-2-ylmethyl)-1H-benzimidazole-6-carboxylic acid], for which the maximal response (Emax) was determined as 72% on human GLP-1R [1] and 84% at human GLP-1R [2].

Turning to `CCn1nncc1Cn1c(CN2CCN(c3cccc(OCc4ccc(C#N)cc4F)n3)CC2)nc2ccc(C(=O)O)cc21` [Compound 159B, 2-[(4-{6-[(4-cyano-2-fluorobenzyl)oxy]pyridin-2-yl}piperazin-1-yl)methyl]-1-[(1-ethyl-1H-1,2,3-triazol-5-yl)methyl]-1H-benzimidazole-6-carboxylic acid], on human GLP-1R [1], the EC50 was determined as 0.5 nM and the Emax was 73%. Further, the EC50 at human GLP-1R [2] was 22 nM.

With `CC1CN(c2cccc(OCc3ccc(C#N)cc3F)n2)CCN1Cc1nc2ccc(C(=O)O)cc2n1Cc1cnco1` (stereo in doubt) [Compound 242B, 2-{[(2S)-4-{6-[(4-cyano-2-fluorobenzyl)oxy]pyridin-2-yl}-2-methylpiperazin-1-yl]methyl}-1-(1,3-oxazol-5-ylmethyl)-1H-benzimidazole-6-carboxylic acid], on human GLP-1R [1], a half-maximal effect (EC50) was put at 0.52 nM and the Emax was found to be 70%. For the same molecule, on human GLP-1R [2], the response was half-maximal at 8.5 nM (EC50) and the Emax amounted to 78%.

Turning to `Cn1c(CN2CCC(c3cccc(OCc4ccc(C(F)(F)F)cc4)n3)CC2)nc2ccc(C(=O)O)cc21` [Compound 232B, 1-methyl-2-{[4-(6-{[4-(trifluoromethyl)benzyl]oxy}pyridin-2-yl)piperidin-1-yl]methyl}-1H-benzimidazole-6-carboxylic acid], on human GLP-1R [1], the EC50 worked out at 8.6 nM and the Emax is 64%. On human GLP-1R [2], this molecule showed an EC50 of 140 nM and an Emax of 76%.

As for `CN1CC(Cn2c(CN3CCC(c4cccc(OCc5ccc(Cl)cc5F)n4)CC3)nc3ccc(C(=O)O)cc32)C1` [Compound 243B, 2-[(4-{6-[(4-chloro-2-fluorobenzyl)oxy]pyridin-2-yl}piperidin-1-yl)methyl]-1-[(1-methylazetidin-3-yl)methyl]-1H-benzimidazole-6-carboxylic acid], on human GLP-1R [1], it took 4.7 nM to reach a half-maximal effect (EC50) and the Emax was 71%. Further, on human GLP-1R [2], the EC50 was determined as 84 nM and the Emax was found to be 83%.

In the case of `Cc1ccc(Cn2c(CN3CCC(c4cccc(OCc5ccc(Cl)cc5F)n4)CC3)nc3ccc(C(=O)O)cc32)cn1` [Compound 336B, 2-[(4-{6-[(4-chloro-2-fluorobenzyl)oxy]pyridin-2-l}piperidin-1-yl)methyl]-1-[(6-methylpyridin-3-yl)methyl]-1H-benzimidazole-6-carboxylic acid], on human GLP-1R [1], a half-maximal effect (EC50) was put at 150 nM and the maximal effect (Emax) came to 68%. In addition, on human GLP-1R [2], the EC50 turned out to be 5300 nM and the maximum response (Emax) was 80%.

As to `CC(c1cnn(C)n1)n1c(CN2CCC(c3cccc(OCc4ccc(Cl)cc4F)n3)CC2)nc2ccc(C(=O)O)cc21` (stereo not drawn) [Compound 335B, 2-[(4-{6-[(4-chloro-2-fluorobenzyl)oxy]pyridin-2-yl}piperidin-1-yl)methyl]-1-[1-(2-methyl-2H-1,2,3-triazol-4-yl)ethyl]-1H-benzimidazole-6-carboxylic acid], the EC50 at human GLP-1R [1] amounted to 5 nM; on human GLP-1R [2], 41 nM. For the same molecule, the results for the Emax at human GLP-1R [1] and on human GLP-1R [2] were 82% and 77%, respectively.

For `COCCn1cnnc1Cn1c(CN2CCC(c3cccc(OCc4ccc(Cl)cc4F)n3)CC2)nc2ccc(C(=O)O)cc21` [Compound 294B, 2-[(4-{6-[(4-chloro-2-fluorobenzyl)oxy]pyridin-2-yl}piperidin-1-yl)methyl]-1-{[4-(2-methoxyethyl)-4H-1,2,4-triazol-3-yl]methyl}-1H-benzimidazole-6-carboxylic acid], on human GLP-1R [1], the midpoint of the response, the EC50, lay at 72 nM and the Emax came to 76%. Also, at human GLP-1R [2], the midpoint of the response, the EC50, lay at 1500 nM and the Emax was 81%.

Regarding `N#Cc1ccc(COc2cccc(N3CCN(Cc4nc5ccc(C(=O)O)cc5n4Cc4cnco4)CC3)n2)c(F)c1` [Compound 142B, 2-[(4-{6-[(4-cyano-2-fluorobenzyl)oxy]pyridin-2-yl}piperazin-1-yl)methyl]-1-(1,3-oxazol-5-ylmethyl)-1H-benzimidazole-6-carboxylic acid], the values for the EC50 at human GLP-1R [1] and on human GLP-1R [2] were 9 nM and 170 nM, respectively. In addition, the Emax was determined as 82% on human GLP-1R [1] and 85% at human GLP-1R [2].

Take `CC(C)n1c(CN2CCC(c3cccc(OCc4ccc(Cl)cc4F)n3)CC2)nc2ccc(C(=O)O)cc21` [Compound 258B, 2-[(4-{6-[(4-chloro-2-fluorobenzyl)oxy]pyridin-2-yl}piperidin-1-yl)methyl]-1-(propan-2-yl)-1H-benzimidazole-6-carboxylic acid]: the EC50 was 0.9 nM on human GLP-1R [1] and 9.7 nM on human GLP-1R [2]. Further, the Emax stood at 94% at human GLP-1R [1] and 100% on human GLP-1R [2].

On to `CCN1CCC(Cn2c(CN3CCC(c4cccc(OCc5ccc(Cl)cc5F)n4)CC3)nc3ccc(C(=O)O)cc32)C1` (stereo not drawn) [Compound 278B, 2-[(4-{6-[(4-chloro-2-fluorobenzyl)oxy]pyridin-2-yl}piperidin-1-yl)methyl]-1-[(1-ethylpyrrolidin-3-yl)methyl]-1H-benzimidazole-6-carboxylic acid], for which, at human GLP-1R [1], the EC50 was found to be 9.4 nM and the maximal response (Emax) was determined as 69%. For the same molecule, at human GLP-1R [2], the EC50 was 94 nM and the Emax is 92%.

The EC50 is the concentration that produces a half-maximal response. The term Emax denotes the size of the effect at its maximum, as opposed to the concentration needed.

(Values after patent publication US20250235460A1, “COMBINATION THERAPY USING GLUCOSE-DEPENDENT INSULINOTROPIC POLYPEPTIDE RECEPTOR ANTAGONIST COMPOUNDS AND GLP-1 RECEPTOR AGONIST COMPOUNDS” (Pfizer Inc., priority 2024, published 2025).)
